Experimental data: paper PMC11606603, “The membrane domains of mammalian adenylyl cyclases are lipid receptors” (eLife, 2024)
Several values for one entry are separate records, joined by “and”; a condition that tells them apart may be missing. Equal values may be shown once. Read-outs that look alike come from different tables or passages of the source.

Columns and labels:
Assay type in all cases: biochemical
mAC6 = molecular target: T1, mAC6 (Homo sapiens, UniProt O43306); assay: AC assay, Gsα-stimulated mAC6 in membranes from transfected HEK293 cells; settings: for activity [%] (100% = 300nM Gsα stimulation): mAC6
T1 construct: Human mAC genes were from GenScript and fitted with a C-terminal FLAG-tag; FLAG (C); made in house; host or cells: HEK293, permanently transfected; membrane preparation
Outline: (§1)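 cAMP formation was quantified by HTRF against a cAMP standard curve, with EC50 or IC50 derived by curve fitting. Reactions contained 1 mM ATP, 2 mM MgCl2, 3 mM creatine phosphate, 60 μg/ml creatine kinase and 50 mM MOPS pH 7.5, using membranes of stably transfected HEK293 cells carrying FLAG-tagged human AC.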

mAC5 = molecular target: T2, mAC5 (Homo sapiens, UniProt O95622); assay: AC assay, Gsα-stimulated mAC5 in membranes from transfected HEK293 cells; settings: for activity [%] (100% = 300nM Gsα stimulation): mAC5
T2 construct: Human mAC genes were from GenScript and fitted with a C-terminal FLAG-tag; FLAG (C); made in house; host or cells: HEK293, permanently transfected; membrane preparation
Outline: as §1

mAC1 = molecular target: T3, mAC1 (Homo sapiens, UniProt Q08828); assay: AC assay, Gsα-stimulated mAC1 in membranes from transfected HEK293 cells; settings: for activity [%] (100% = 300nM Gsα stimulation): mAC1
T3 construct: Human mAC genes were from GenScript and fitted with a C-terminal FLAG-tag; FLAG (C); made in house; host or cells: HEK293, permanently transfected; membrane preparation
Outline: as §1

mAC3 = molecular target: T4, mAC3 (Homo sapiens, UniProt O60266); assay: AC assay, Gsα-stimulated mAC3 in membranes from transfected HEK293 cells; settings: for activity [%] (100% = 300nM Gsα stimulation): mAC3
T4 construct: Human mAC genes were from GenScript and fitted with a C-terminal FLAG-tag; FLAG (C); made in house; host or cells: HEK293, permanently transfected; membrane preparation
Outline: as §1

mAC2 = molecular target: T5, mAC2 (Homo sapiens, UniProt Q08462); assay: AC assay, Gsα-stimulated mAC2 in membranes from transfected HEK293 cells; settings: Figure 5-figure supplement 1 left, 20 µM
T5 construct: Human mAC genes were from GenScript and fitted with a C-terminal FLAG-tag; FLAG (C); made in house; host or cells: HEK293, permanently transfected; membrane preparation
Outline: as §1

mAC8 = molecular target: T6, mAC8 (Homo sapiens, UniProt P40145); assay: AC assay, Gsα-stimulated mAC8 in membranes from transfected HEK293 cells; settings: 20µM fatty acid concentration
T6 construct: Human mAC genes were from GenScript and fitted with a C-terminal FLAG-tag; FLAG (C); made in house; host or cells: HEK293, permanently transfected; membrane preparation
Outline: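 Human AC, FLAG-tagged, stably expressed in HEK293; membranes used as enzyme. 1 mM ATP, 2 mM MgCl2, ATP regeneration, MOPS pH 7.5; cAMP kit readout.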

[1] = attenuation of 300 nM Gsα-stimulated activity
[2] = 100µM Anandamide concentration, Figure 9 D

T5 sequence (Q08462 whole entry): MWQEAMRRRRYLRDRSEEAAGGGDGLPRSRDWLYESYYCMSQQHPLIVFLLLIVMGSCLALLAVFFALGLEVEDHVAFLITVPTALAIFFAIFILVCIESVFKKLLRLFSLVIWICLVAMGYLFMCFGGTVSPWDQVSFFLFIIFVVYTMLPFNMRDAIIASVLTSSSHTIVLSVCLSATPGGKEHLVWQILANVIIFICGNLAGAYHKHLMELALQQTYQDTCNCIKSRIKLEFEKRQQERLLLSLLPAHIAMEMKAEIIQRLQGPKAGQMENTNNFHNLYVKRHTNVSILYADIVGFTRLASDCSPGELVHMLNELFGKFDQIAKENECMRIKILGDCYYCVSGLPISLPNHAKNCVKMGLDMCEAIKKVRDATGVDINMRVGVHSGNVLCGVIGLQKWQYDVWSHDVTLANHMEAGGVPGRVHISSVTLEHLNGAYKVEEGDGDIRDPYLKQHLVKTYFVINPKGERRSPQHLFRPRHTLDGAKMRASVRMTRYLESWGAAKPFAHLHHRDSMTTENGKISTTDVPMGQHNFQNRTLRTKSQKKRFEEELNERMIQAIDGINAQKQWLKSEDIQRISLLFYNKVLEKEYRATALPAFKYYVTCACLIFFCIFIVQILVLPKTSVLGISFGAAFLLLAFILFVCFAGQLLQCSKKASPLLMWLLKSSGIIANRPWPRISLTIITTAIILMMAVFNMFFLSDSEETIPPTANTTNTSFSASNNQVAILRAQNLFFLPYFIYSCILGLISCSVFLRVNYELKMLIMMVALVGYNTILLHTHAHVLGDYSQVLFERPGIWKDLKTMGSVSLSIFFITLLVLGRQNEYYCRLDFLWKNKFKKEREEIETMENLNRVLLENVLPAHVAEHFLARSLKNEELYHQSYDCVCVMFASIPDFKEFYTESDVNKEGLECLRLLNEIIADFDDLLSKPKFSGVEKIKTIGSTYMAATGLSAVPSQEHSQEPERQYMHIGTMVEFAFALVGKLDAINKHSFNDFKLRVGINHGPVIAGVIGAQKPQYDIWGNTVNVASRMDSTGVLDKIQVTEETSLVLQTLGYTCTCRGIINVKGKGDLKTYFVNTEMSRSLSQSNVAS
T5 sequence (P63092 2-394 Q227L partner): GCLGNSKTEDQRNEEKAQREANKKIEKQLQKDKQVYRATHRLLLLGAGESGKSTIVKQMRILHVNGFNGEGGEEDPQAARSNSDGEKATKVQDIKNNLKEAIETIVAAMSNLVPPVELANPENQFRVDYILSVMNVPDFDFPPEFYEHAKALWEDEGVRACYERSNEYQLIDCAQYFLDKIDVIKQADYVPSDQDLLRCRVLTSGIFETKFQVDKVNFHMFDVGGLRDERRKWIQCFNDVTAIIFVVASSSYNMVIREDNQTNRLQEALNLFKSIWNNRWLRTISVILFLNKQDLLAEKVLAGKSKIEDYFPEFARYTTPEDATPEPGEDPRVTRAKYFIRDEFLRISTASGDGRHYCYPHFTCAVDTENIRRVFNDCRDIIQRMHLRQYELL
T2 sequence (O95622 whole entry): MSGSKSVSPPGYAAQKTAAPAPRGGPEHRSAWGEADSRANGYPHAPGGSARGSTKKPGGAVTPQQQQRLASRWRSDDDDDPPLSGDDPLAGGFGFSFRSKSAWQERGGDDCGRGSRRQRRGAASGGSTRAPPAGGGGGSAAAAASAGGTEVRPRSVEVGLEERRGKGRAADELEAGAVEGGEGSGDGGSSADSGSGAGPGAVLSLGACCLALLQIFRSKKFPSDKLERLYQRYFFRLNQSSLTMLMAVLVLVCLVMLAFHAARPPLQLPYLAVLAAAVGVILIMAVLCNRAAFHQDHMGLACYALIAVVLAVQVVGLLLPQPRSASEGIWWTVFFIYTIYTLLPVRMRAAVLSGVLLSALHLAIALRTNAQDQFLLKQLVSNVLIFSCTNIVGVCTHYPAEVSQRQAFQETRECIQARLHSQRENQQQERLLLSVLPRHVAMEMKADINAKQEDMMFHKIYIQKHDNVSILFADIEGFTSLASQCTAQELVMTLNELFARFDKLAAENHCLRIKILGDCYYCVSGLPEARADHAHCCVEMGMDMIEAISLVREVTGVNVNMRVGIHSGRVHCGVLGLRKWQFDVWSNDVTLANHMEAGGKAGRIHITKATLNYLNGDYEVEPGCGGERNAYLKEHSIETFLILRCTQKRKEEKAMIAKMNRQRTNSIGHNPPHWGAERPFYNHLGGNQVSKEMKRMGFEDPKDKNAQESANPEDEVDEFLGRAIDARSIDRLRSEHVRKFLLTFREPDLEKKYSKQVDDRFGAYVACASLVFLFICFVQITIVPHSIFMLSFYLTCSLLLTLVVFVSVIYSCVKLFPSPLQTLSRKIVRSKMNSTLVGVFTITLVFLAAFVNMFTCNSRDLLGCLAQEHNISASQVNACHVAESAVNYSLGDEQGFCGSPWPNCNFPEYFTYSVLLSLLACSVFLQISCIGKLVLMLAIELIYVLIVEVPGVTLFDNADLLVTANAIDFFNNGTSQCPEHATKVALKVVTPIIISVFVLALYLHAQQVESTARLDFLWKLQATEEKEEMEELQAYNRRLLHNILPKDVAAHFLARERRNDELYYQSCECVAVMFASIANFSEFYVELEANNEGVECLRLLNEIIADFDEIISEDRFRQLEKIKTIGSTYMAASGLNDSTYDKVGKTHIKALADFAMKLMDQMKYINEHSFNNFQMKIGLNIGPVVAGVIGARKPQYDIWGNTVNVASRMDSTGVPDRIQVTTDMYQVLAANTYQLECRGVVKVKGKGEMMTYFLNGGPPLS
T4 sequence (O60266 whole entry): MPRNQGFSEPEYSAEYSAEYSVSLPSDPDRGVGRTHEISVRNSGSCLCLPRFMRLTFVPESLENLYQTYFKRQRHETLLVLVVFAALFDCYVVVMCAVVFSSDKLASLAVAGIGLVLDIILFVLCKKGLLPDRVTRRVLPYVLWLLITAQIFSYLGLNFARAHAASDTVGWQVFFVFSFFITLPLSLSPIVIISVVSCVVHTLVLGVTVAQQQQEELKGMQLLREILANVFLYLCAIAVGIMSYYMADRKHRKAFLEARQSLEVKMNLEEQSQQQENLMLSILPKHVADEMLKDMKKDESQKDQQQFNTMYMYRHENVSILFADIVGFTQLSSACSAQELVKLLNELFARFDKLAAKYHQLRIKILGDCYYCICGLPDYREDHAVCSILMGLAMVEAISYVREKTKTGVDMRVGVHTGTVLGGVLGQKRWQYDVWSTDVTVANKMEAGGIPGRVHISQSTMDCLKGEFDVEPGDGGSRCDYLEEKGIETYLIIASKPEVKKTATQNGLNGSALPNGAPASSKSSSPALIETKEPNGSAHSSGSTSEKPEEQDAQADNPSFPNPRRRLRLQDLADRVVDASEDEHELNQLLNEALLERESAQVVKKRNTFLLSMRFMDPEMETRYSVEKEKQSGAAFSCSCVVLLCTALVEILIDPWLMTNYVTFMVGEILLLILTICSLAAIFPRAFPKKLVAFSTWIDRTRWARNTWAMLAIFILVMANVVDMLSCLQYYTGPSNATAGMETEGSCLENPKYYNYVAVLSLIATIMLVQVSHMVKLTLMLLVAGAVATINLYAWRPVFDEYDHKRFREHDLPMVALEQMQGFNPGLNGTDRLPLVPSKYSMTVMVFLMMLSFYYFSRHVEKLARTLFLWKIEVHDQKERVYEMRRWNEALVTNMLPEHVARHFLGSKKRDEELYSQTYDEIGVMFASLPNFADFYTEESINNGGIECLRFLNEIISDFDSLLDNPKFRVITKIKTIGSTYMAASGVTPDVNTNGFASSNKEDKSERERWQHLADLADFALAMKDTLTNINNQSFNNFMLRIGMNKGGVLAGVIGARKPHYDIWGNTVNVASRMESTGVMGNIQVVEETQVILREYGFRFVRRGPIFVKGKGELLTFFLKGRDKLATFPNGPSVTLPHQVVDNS
T4 sequence (P63092 whole entry Q227L partner): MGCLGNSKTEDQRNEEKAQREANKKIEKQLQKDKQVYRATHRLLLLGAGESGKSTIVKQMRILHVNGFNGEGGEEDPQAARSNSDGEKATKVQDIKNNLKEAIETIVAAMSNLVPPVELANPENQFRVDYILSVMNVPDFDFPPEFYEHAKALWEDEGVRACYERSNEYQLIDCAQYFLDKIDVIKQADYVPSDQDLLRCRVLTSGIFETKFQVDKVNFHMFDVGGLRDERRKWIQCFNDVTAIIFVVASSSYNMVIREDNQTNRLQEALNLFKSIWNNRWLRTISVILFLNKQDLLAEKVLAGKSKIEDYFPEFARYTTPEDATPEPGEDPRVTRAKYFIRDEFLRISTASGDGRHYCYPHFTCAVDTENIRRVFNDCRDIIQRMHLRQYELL

## CCCCC/C=C\C/C=C\C/C=C\C/C=C\CCCC(=O)NCCO [Anandamide, arachidonoylethanolamide]
mAC6; [1]
  IC50: 23 µM and 22 µM
mAC6; Anandamide 0.1 µM
  activity [%] (100% = 300nM Gsα stimulation): 100%
mAC6; Anandamide 0.5 µM
  activity [%] (100% = 300nM Gsα stimulation): 100% and 94%
mAC6; Anandamide 1 µM
  activity [%] (100% = 300nM Gsα stimulation): 89%
mAC6; Anandamide 20 µM
  activity [%] (100% = 300nM Gsα stimulation): 89%
mAC6; Anandamide 30 µM
  activity [%] (100% = 300nM Gsα stimulation): 60% and 59% and 57% and 63% and 40%
mAC6; Anandamide 35 µM
  activity [%] (100% = 300nM Gsα stimulation): 73%
mAC6; Anandamide 100 µM
  activity [%] (100% = 300nM Gsα stimulation): 26%
mAC5; [1]
  IC50: 42 µM
mAC5; [2]
  activity [%] (100% = 300nM Gsα stimulation): 55% and 58% and 70% and 40% and 56% and 45% and 65% and 60%
mAC5; Anandamide 0.1 µM
  activity [%] (100% = 300nM Gsα stimulation): 100%
mAC5; Anandamide 0.5 µM
  activity [%] (100% = 300nM Gsα stimulation): 96% and 115% and 93% and 114% and 127%
mAC5; Anandamide 3 µM
  activity [%] (100% = 300nM Gsα stimulation): 122% and 77%
mAC5; Anandamide 8 µM
  activity [%] (100% = 300nM Gsα stimulation): 101%
mAC5; Anandamide 10 µM
  activity [%] (100% = 300nM Gsα stimulation): 99%
mAC5; Anandamide 35 µM
  activity [%] (100% = 300nM Gsα stimulation): 78% and 77% and 119%
mAC5; Anandamide 40 µM
  activity [%] (100% = 300nM Gsα stimulation): 58% and 74%
mAC5; Anandamide 80 µM
  activity [%] (100% = 300nM Gsα stimulation): 47%
mAC1
  IC50: 29 µM
mAC1; Anandamide 0.1 µM
  activity [%] (100% = 300nM Gsα stimulation): 100%
mAC1; Anandamide 1 µM
  activity [%] (100% = 300nM Gsα stimulation): 81% and 83% and 116% and 100% and 88%
mAC1; Anandamide 3 µM
  activity [%] (100% = 300nM Gsα stimulation): 98% and 83% and 114% and 101% and 97%
mAC1; Anandamide 10 µM
  activity [%] (100% = 300nM Gsα stimulation): 92% and 80% and 101% and 94% and 81%
mAC1; Anandamide 30 µM
  activity [%] (100% = 300nM Gsα stimulation): 41% and 63% and 74% and 78% and 71%
mAC1; Anandamide 60 µM
  activity [%] (100% = 300nM Gsα stimulation): 39% and 40% and 53% and 59% and 57%
mAC3; [2]
  activity [%] (100% = 300nM Gsα stimulation): 165%
mAC3; Anandamide 0.1 µM
  activity [%] (100% = 300nM Gsα stimulation): 100%
mAC3; Anandamide 1 µM
  activity [%] (100% = 300nM Gsα stimulation): 87% and 101% and 117% and 100% and 94% and 127% and 77%
mAC3; Anandamide 10 µM
  activity [%] (100% = 300nM Gsα stimulation): 105% and 80% and 130% and 120% and 88% and 111% and 112% and 137%
mAC3; Anandamide 30 µM
  activity [%] (100% = 300nM Gsα stimulation): 96% and 65% and 85% and 72% and 94% and 68% and 100% and 101%

## CCCCC/C=C\C/C=C\C/C=C\C/C=C\CCCC(=O)O [Arachidonic acid, Arachidonic ((5Z,8Z,11Z,14Z)-eicosatetraenoic) acid]
mAC5; 20µM fatty acid concentration
  mAC5 activity [%] (100% = 300nM Gsα stimulation): 97% and 73% and 120% and 131% and 110%
mAC2
  mAC2 activity [%] (100% = 300nM Gsα stimulation); 20µM fatty acid concentration: 133% and 137% and 152% and 99% and 147%
mAC1; 20 µM, in words
  Effect of lipid on 300 nM Gsα-stimulated mAC1: significantly attenuated
mAC1; attenuation of 300 nM Gsα-stimulated activity, read-out: IC50 for mAC1
  IC50: 23 µM
mAC1; 6 µM, 300 nM Gsα, single experiments
  activity [%] (100% = 300nM Gsα stimulation): 84% and 119% and 80% and 96% and 100% and 86% and 114% and 97%
mAC1; 30 µM, 300 nM Gsα, single experiments
  activity [%] (100% = 300nM Gsα stimulation): 58% and 69% and 46%
mAC1; 60 µM, 300 nM Gsα, single experiments
  activity [%] (100% = 300nM Gsα stimulation): 12% and 11%
mAC1; 100 µM, 300 nM Gsα, single experiments
  activity [%] (100% = 300nM Gsα stimulation): 12% and 2% and 3%
mAC3; fatty acid 20 µM, individual experiments
  mAC3 activity [%] (100% = 300nM Gsα stimulation): 115% and 168% and 182% and 127%
mAC8
  mAC8 activity [%] (100% = 300nM Gsα stimulation): 90% and 106% and 87%
